How the values were obtained:
[1] = molecular target: T1, ML1a human melatonin receptor (Homo sapiens, UniProt P48039); assay: Melatonergic binding: ML1a human melatonin receptor binding (2-[125I]-iodomelatonin, COS-1 cell membranes); settings: human ML1a in COS-1 cells; 37° C., 1 hour; read-out: In-Vitro Receptor Binding Activities ML1a (IC50)
T1 construct: expressed in transfected cells; host or cells: COS-1 cells
Description: (§1) The melatonergic binding of the compounds of Formula I was determined by the method of Reppert, S. M., et al., as described in Neuron, Vol. 13, 1177-1185 (1994) and Proc. Nat. Acad. Sci. USA, 92, 8734-8738 (1995) and also as described by Stankov, B., et al., "Characterization and mapping of melatonin receptors in the brain of three mammalian species: Rabbit, horse and sheep," in Neuroendocrinology, 53, 214-221 (1991). The assays were incubated at 37° C. for 1 hour, and the reaction was terminated by filtration through a Brandel cell harvester. The filters were washed 3 times with wash buffer. […] The reagents, membranes, and techniques used in the melatonergic binding assays are more fully described below:
(§2) (a) 50 mM Tris buffer containing 12.5 mM MgCl2 and 2 mM EDTA (pH 7.4 at 37° C.).
(§3) (b) Wash buffer: 20 mM Tris base containing 2 mM MgCl2 (pH 7.4 at room temperature).
(§4) (c) 6-Chloromelatonin (10^-5 M final concn.).
(§5) (d) 2-[^125 I]-Iodomelatonin. Source: New England Nuclear
The cDNA (human ML1a) was introduced into COS-1 cells by the DEAE-dextran method. Three days later, the media was removed, the plates washed with phosphate buffered saline, the cells removed using Hank's balanced salt solution and pelleted. The supernatant was discarded and the pellets frozen. For preparing membrane homogenates, the pellets are thawed on ice, and resuspended in TME buffer [Tris base, MgCl2, EDTA (pH 7.4 at 37° C.], supplemented with aprotinin, leupeptin and phenylmethyl-sulfonylfluoride. The cells were then homogenized using a dounce homogenizer and centrifuged. The resulting pellet was resuspended with a dounce homogenizer in TME and frozen. On the day of assay, a small aliquot was thawed on ice and resuspended in TME buffer (1:1000).

[2] = molecular target: ML1 rabbit melatonin receptor; assay: Melatonergic binding: ML1 rabbit melatonin receptor binding (2-[125I]-iodomelatonin, rabbit parietal cortex); parameters: species or system rabbit (Male New Zealand white); settings: 37° C., 1 hour, read-out: In-Vitro Receptor Binding Activities ML1 (IC50)
Description: as §1, §2, §3, §4, §5
Male New Zealand white rabbits (Hazelton Research) are decapitated, the brains are rapidly removed and chilled. The parietal cortex is crudely dissected and the tissue frozen on dry ice at -80° C. until assayed. Tissue is weighed and thawed in 20 mls of ice-cold Tris buffer (a) and then homogenized by treatment with a polytron for 10 seconds at setting 17. Ice cold Tris (a) is added to a volume of 40 ml. The homogenate is centrifuged in a Sorvall-SS-34 head at 19,000 rpm (44,000× g) for 20 min at 4° C. The resulting supernatant is decanted and discarded. The pellet is re-homogenized in an additional 20 ml of Tris buffer, diluted and centrifuged as before. The supernatant is decanted and discarded. The resulting pellet is homogenized in 20 volumes of Tris buffer per gram of original tissue (a 1:20 homogenate), chilled, and held on ice until assayed.

T1 sequence (P48039 whole entry): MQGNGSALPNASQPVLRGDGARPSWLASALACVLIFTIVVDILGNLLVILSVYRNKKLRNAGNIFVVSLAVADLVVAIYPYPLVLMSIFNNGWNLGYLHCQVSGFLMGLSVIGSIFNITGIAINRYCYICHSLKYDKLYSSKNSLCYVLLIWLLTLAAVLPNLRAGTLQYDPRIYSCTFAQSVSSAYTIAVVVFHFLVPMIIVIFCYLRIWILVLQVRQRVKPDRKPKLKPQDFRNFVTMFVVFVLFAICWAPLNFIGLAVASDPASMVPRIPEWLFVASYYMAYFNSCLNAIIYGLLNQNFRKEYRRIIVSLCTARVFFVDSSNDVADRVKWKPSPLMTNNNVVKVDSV

Structure (SMILES)	IC50 [1] [nM]	IC50 [2] [nM]
CCCC(=O)NCc1ccccc1-c1cccc(OC)c1 [Example 7, N-[(3'-Methoxy[1,1'-biphenyl]-2-yl)methyl]butanamide]	100 to 300	10 to 50
COc1cccc(-c2ccccc2CNC(=O)C(C)C)c1 [Example 8, N-[(3'-Methoxy[1,1'-biphenyl]-2-yl)methyl]-2-methylpropanamide]	100 to 300	< 10
CCNC(=O)NCc1ccccc1-c1cccc(OC)c1 [Example 9, N-Ethyl N'-[(3'-methoxy[1,1'-biphenyl]-2-yl)methyl]urea]	100 to 300	< 10
CCCC(=O)NCc1cccc(-c2cccc(OC)c2)c1 [Example 10, N-[(3'-methoxy-[1,1'-biphenyl]-3-yl)methyl]butanamide]	> 300	10 to 50
COc1cccc(-c2cccc(CNC(=O)C(C)C)c2)c1 [Example 11, N-[(3'-methoxy-[1,1'-biphenyl]-3-yl)methyl]-2-methylpropanamide]	100 to 300	< 10
CCNC(=O)NCc1cccc(-c2cccc(OC)c2)c1 [Example 12, N-Ethyl N'-[(3'-methoxy-[1,1'-biphenyl]-3-yl)methyl]urea]	> 300	10 to 50

The remaining lines, values ahead:

IC50 [1] [nM]	IC50 [2] [nM]	Structure (SMILES)
< 100	< 10	CCCC(=O)Nc1cccc(-c2cccc(OC)c2)c1 [Example 1, N-(3'-Methoxy-[1,1'-biphenyl]-3-yl)butanamide]
< 100	> 50	COc1cccc(-c2cccc(NC(=O)C(C)C)c2)c1 [Example 2, N-(3'-Methoxy-[1,1'-biphenyl]-3-yl)2-methylpropanamide]
< 100		COc1cccc(-c2cccc(NC(=O)C3CC3)c2)c1 [Example 3, N-(3'-Methoxy-[1,1'-biphenyl]-3-yl)cyclopropanecarboxamide]
< 100		CCC(=O)Nc1cccc(-c2cccc(OC)c2)c1 [Example 4, N-(3'-Methoxy-[1,1 '-biphenyl]-3-yl)propanamide]
> 300		COCC(=O)Nc1cccc(-c2cccc(OC)c2)c1 [Example 5, N-(3'-Methoxy-[1,1'-biphenyl]-3-yl)-2-methoxyacetamide]
> 300	> 50	CCNC(=O)Nc1cccc(-c2cccc(OC)c2)c1 [Example 6, N-Ethyl N'-(3'-methoxy-[1,1'-biphenyl]-3-yl)urea]
